Experimental data taken from patent US20100113332A1, “METHOD OF TREATING AN INFLAMMATORY DISEASE BY DOUBLE STRANDED RIBONUCLEIC ACID” (NASTECH PHARMACEUTICAL COMPANY INC., priority 2004, published 2010).

Columns and labels:
[1] = system: TNF-α mRNA; assay: TNF-α knockdown in human monocytes (branch DNA);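 note: LPS-activated human CD14+ monocytes, TNF-α mRNA read by branched DNA assay and normalized to cypB mRNA, knockdown compared with random-sequence Qneg siRNA as negative control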
Description: For mRNA measurement, branch DNA technology from Genospectra (CA) was used according to manufacturer's specification. Human monocytes (CD14+) treated with LPS induce TNF-α-specific mRNA within approximately 2 hrs, followed by peak levels of TNF-α protein 2 hrs later. siRNAs were screened for knockdown activity by transfecting monocytes with siRNA candidate sequences using Lipofectamine 2000, treating infected cells with LPS, and measuring TNF-α mRNA levels approximately 16 hrs later.
To quantitate mRNA level in the cells, both house keeping gene (cypB) and target gene (TNF-α) mRNA were measured, and the reading for TNF-α was normalized with cypB to obtain relative luminescence unit.
Qneg represents a random siRNA sequence and functions as the negative control in these experiments.

[2] = system: 9L/LacZ cells; assay: siRNA uptake by flow cytometry in 9L/LacZ cells; format: cell-based, rat; conditions: peptide/siRNA complex
Description: (§1) Cells were plated the day before so that they were ˜50-80% confluent at time of transfection. For complexes, siRNA and peptide were diluted in Opti-MEM® media (Invitrogen), then mixed and allowed to complex 5-10 minutes before adding to cells washed with PBS. Final concentration of siRNA was 500 nM at each peptide concentration (2-50 μM). The conjugate, also diluted in Opti-MEM® media, was added to cells at final concentrations ranging from 62.5 nM to 500 nM. At 500 nM concentration, we also combined with 20% FBS just before adding to washed cells. Cells were transfected for 3 hours at 37° C., 5% CO2. Cells were washed with PBS, treated with trypsin and then analyzed by flow cytometry. siRNA uptake was measured by intensity of Cy5 fluorescence and cellular viability assessed by addition of propidium iodide.
Uptake was measured using 9L/lacZ cells transfected as described in Example 2. Cells were washed with PBS, treated with trypsin and then analyzed by flow cytometry. siRNA uptake was measured by intensity of FAM fluorescence and cellular viability assessed by addition of propidium iodide.

[3] = system: human TNF-α transgenic mice; assay: RA paw score in human TNF-α transgenic mice; conditions: for RA progression by paw score at week 8 (FIG. 4): siRNA delivered with PN73
Description: For human TNF-α animal disease models, two transgenic models were used. The tg197 mice were acquired from Pasteur Hellenic Institute (Athens, Greece), and the B6.SJL-Tg(TNF) N21 mice were purchased from Taconic, Inc. (Germantown, N.Y.). The genotypes of both human TNF-α transgenic mouse models were performed by suppliers. […] All treatments were by tail vein injection twice a week. […] A similar dose regimen was used for B6.SJL-Tg(TNF) N21 mice. Clinical scores were based on a previously described scoring system (2, 3) as follows: 0 (normal), 1 (edema or distortion of paw or ankle joints), 2 (distortion of paw and ankle joints), or 3 (ankylosis of wrist or ankle joints). The sum of all four paws was scored twice a week with a maximum score of 12 per mouse.
For Hellenic transgenic mice, RA scores were determined (blinded to treatment) using the following criteria: 0, normal; 1, edema or distortion of paw or ankle joints; 2 distortion of paw and ankle joints; 3, ankylosis of wrist or ankle joints.
Human NF-α expressing mice were purchase from the Hellenic Pasture Institute, Greece) at 5 weeks old. […] During the injection periods, plasma samples were collected for ELISA testing (R&D Systems, Cat#SSTA00C), and paw scores were taken twice a week as an accepted index of RA disease progression and therapeutic efficacy (Table 19).
Due to the difference in the starting point (some animals present with scores at earlier points), the scores have been adjusted to 0 for all animals in the experiments. Each paw is given a score between 0 and 3, with the highest score of 12, according to the following scoring index. • 0: Normal • 1: edema or distortion of paw or ankle joints • 2: distortion of paw and ankle joints • 3: ankylosis of wrist or ankle joints.

[4] = system: mouse tail fibroblast (MTF) cells; format: cell-based; conditions: peptide/siRNA complex
Description: as §1
The materials and methods used for the experiments performed in 9L/LacZ cells and mouse fibroblast cells are generally the same as described above, except that for the murine experiments, 9L/LacZ cells were replaced with mouse tail fibroblasts.

[5] = system: interferon response markers (IL-1β, INF-α, IL-6, IL-8, IL-12, MIP-1α, IFN-γ, TNF-α); assay: interferon responsiveness, marker protein ELISA; format: cell-based; conditions: for Relative protein expression level of IFN-γ / Relative protein expression level of IL-12 / Relative protein expression level of INF-α: Lipofectamine transfection; for interferon response (ELISA): regardless of transfection reagent
Description: Interferon responsiveness was assayed by ELISA (protein) and bDNA (mRNA levels).

[6] = system: 9L/LacZ cells; assay: beta-galactosidase knockdown assay of siRNA transfection efficiency; format: cell-based, rat; conditions: Histone H2B plus siRNA
Description: For H3, H4 and H2b, a series of experiments was performed to complex these polynucleotide delivery-enhancing polypeptides with siRNA in different ratios. Generally this was initiated with a 1:0.01 to 1:50 of siRNA/histone ratio. To each well in a 96-well microtiter plate, 40 pm siRNA was added. Each well contained beta-gal cells at 50% confluency.
Transfections were performed with either regular siRNA or siRNA complexed with one of the above-identified histone proteins on 9L/beta-gal cells. The siRNA was designed to specifically knock down beta-galactosidase mRNA, and activities are expressed as percentage of beta-gal activities from control (control cells were transfected using lipofectamine without the polynucleotide delivery-enhancing polypeptide).
For beta-galactosidase assays, 9L/LacZ cells, a cell line constitutively expressing beta-galactosidase, were used. 9L/LacZ cells are rat gliosarcoma fibroblast cells that constitutively express LacZ and were obtained from ATCC (#CRL-2200). […]
The transfection efficiency inversely correlates with the amount of beta-galactosidase activity measured from the cell lysate. Upon transfection, a measured decrease in beta-galactosidase activity indicates a successful transfection. Thus, in the absence of transfection, the measured beta-galactosidase activity is 100% and the transfection efficiency is 0%. […]

[7] = system: human TNF-α; assay: plasma human TNF-α by ELISA in human TNF-α transgenic mice; format: in vivo, mouse; conditions: average of the mice
Description: For determination of TNF-α level, For the analysis of experiments involving transgenic mice, plasma samples were separated from whole blood collected by orbital bleeding. Plasma levels of hTNF-α were determined by ELISA at a 1:2 dilution according to the manufacturer's instructions (R&D systems, Minneapolis, Minn.).
For Taconic mice, TNF-α levels in plasma were determined by ELISA (R&D systems, Minneapolis, Minn.) and treatment schedules were same as Hellenic transgenic hTNF-αtransgenic mice.

[8] = system: TNF-α protein; assay: TNF-α protein ELISA in human monocytes; format: cell-based; conditions: siRNA screen with Lipofectamine 2000, LPS-activated monocytes
Description: Human monocytes (CD14+) treated with LPS induce TNF-α-specific mRNA within approximately 2 hrs, followed by peak levels of TNF-α protein 2 hrs later. siRNAs were screened for knockdown activity by transfecting monocytes with siRNA candidate sequences using Lipofectamine 2000, treating infected cells with LPS, and measuring TNF-α mRNA levels approximately 16 hrs later.
To quantitate mRNA level in the cells, both house keeping gene (cypB) and target gene (TNF-α) mRNA were measured, and the reading for TNF-α was normalized with cypB to obtain relative luminescence unit. To quantify protein level, the TNF-α ELISA from BD Bioscience was used according to manufacturer's specification.

[9] = siRNA 4 nM complexed with 1.6 uM PN73
[10] = siRNA 4 nM complexed with 1.6 uM PN509
[11] = siRNA 20 nM complexed with 0.5 uM PN250
[12] = siRNA 20 nM complexed with 0.75 uM PN250
[13] = siRNA 20 nM complexed with 1 uM PN250

With “AACCCAUGUGCUCCUCACCCA (siRNA; delivered as complex with delivery-enhancing peptide, further chemistry not given here) [LC8]” the “KD (%) TNF-α” value [1, 9] was 41.24% and the “KD (%) TNF-α” value [1, 10] was 47.35%.
With “NH2-LLETLLKPFQCRICMRNFSTRQARRNHRRRHRR-amide (H-LLETLLKPFQCRICMRNFSTRQARRNHRRRHRR-NH2; cysteine pairing not given here) [PN202]” the “Percent Uptake LacZ Cells” value [2] was 71%.
For “GCAGGUCUACUUUGGGAUC (siRNA; delivered as complex with delivery-enhancing peptide, further chemistry not given here) [YC18]”, the “KD (%) TNF-α” value [1, 11] was 20.72%, the “KD (%) TNF-α” value [1, 12] was 17.82% and the “KD (%) TNF-α” value [1, 13] was 24.66%.
With “AAUCAGCCGCAUCGCCGUCUC (siRNA; delivered as complex with delivery-enhancing peptide, further chemistry not given here) [LC7]” the “KD (%) TNF-α” value [1, 9] was 42.76% and the “KD (%) TNF-α” value [1, 10] was 56.11%.
For “AAUCGGCCCGACUAUCUCGACUU (chemistry not given here) [LC1]”, the “KD (%) TNF-α” value [1, 9] was 20.08% and the “KD (%) TNF-α” value [1, 10] was 31.13%.
For “GCCUGUAGCCCAUGUUGUA (chemistry not given here) [TNF-α-2]”, the “RA progression by paw score at week 8 (FIG. 4)” value [3] was “delayed RA progression”.
For “AAGCCUGUAGCCCAUGUUGUA (siRNA; delivered as complex with delivery-enhancing peptide, further chemistry not given here) [LC19]”, the “KD (%) TNF-α” value [1, 9] was 61.83% and the “KD (%) TNF-α” value [1, 10] was 56.38%.
“AAGGGUGACCGACUCAGCGcU (siRNA; as printed in the source, key not given here) [LC6]” was tested, and the “KD (%) TNF-α” value [1, 9] was 44.10% and the “KD (%) TNF-α” value [1, 10] was 50.19%.
For “CUUGUGAUUAUUUAUUAUUUA (siRNA; delivered as complex with delivery-enhancing peptide, further chemistry not given here) [LC18]”, the “KD (%) TNF-α” value [1, 9] was 63.44% and the “KD (%) TNF-α” value [1, 10] was 58.13%.
For “NH2-RKKRRQRRRPPQCAAVALLPAVLLALLAP-amide (H-RKKRRQRRRPPQCAAVALLPAVLLALLAP-NH2) [PN28]”, the “Percent Uptake LacZ Cells” value [2] was 79% and the “Percent Uptake Primary MTF Cells” value [4] was 81%.
For “AACCAAUGCCCUCCUGGCCAA (siRNA; delivered as complex with delivery-enhancing peptide, further chemistry not given here) [LC14]”, the “KD (%) TNF-α” value [1, 9] was 50.76% and the “KD (%) TNF-α” value [1, 10] was 42.78%.
“AAUCUCGACUUUGCCGAGUCU (chemistry not given here) [LC5]” was tested, and the “KD (%) TNF-α” value [1, 9] was 46.78% and the “KD (%) TNF-α” value [1, 10] was 34.93%.
With “AACCUCCUCUCUGCCAUCAAG (siRNA; delivered as complex with delivery-enhancing peptide, further chemistry not given here) [LC3]” the “KD (%) TNF-α” value [1, 9] was 23.17% and the “KD (%) TNF-α” value [1, 10] was 30.14%.
For “CCGACUCAGCGCUGAGAUCAA (siRNA; chemistry not fully specified) [LC17]”, the “Relative protein expression level of IFN-γ” value [5] was “Background”, the “Relative protein expression level of IL-12” value [5] was “Background” and the “Relative protein expression level of INF-α” value [5] was “Background”. For the same substance, the “interferon response (ELISA)” value [5] was “no interferon response”, the “KD (%) TNF-α” value [1, 9] was 50.78% and the “KD (%) TNF-α” value [1, 10] was 48.94%. For the same substance, the “Relative effect of siRNA, paw score” value ([3]; group TNF #6) was “Overall low paw score. YC12”.
In the case of “GCGUGGAGCUGAGAGAUAA (siRNA; delivered as complex with delivery-enhancing peptide, further chemistry not given here) [YC11]”, the “KD (%) TNF-α” value [1, 11] was 13.70%, the “KD (%) TNF-α” value [1, 12] was 21.09% and the “KD (%) TNF-α” value [1, 13] was 33.10%.
“AACUGAAAGCAUGAUCCGGGA (siRNA; delivered as complex with delivery-enhancing peptide, further chemistry not given here) [LC4]” was tested, and the “KD (%) TNF-α” value [1, 9] was 26.67% and the “KD (%) TNF-α” value [1, 10] was 22.71%.
“GCCUGUACCUCAUCUACUC (siRNA; chemistry not fully specified) [YC12]” was tested, and the “KD (%) TNF-α” value [1, 9] was 43.60%, the “KD (%) TNF-α” value [1, 10] was 64.37% and the “KD (%) TNF-α” value [1, 11] was 17.06%. The “KD (%) TNF-α” value [1, 12] was 21.66%, the “KD (%) TNF-α” value [1, 13] was 15.91% and the “Relative effect of siRNA, paw score” value ([3]; group TNF #6) was “Overall low paw score. YC12”.
For “GCCCGACUAUCUCGACUUU (siRNA; delivered as complex with delivery-enhancing peptide, further chemistry not given here) [YC17]”, the “KD (%) TNF-α” value [1, 11] was 17.30%, the “KD (%) TNF-α” value [1, 12] was 29.82% and the “KD (%) TNF-α” value [1, 13] was 24.68%.
In the case of “CCAGGGACCUCUCUCUAAU (siRNA; delivered as complex with delivery-enhancing peptide, further chemistry not given here) [TNF-4]”, the “KD (%) TNF-α” value [1, 11] was 0.90%, the “KD (%) TNF-α” value [1, 12] was 14.39% and the “KD (%) TNF-α” value [1, 13] was 26.47%.
With “CCUCAGCCUCUUCUCCUUCCUGA (chemistry not given here) [LC12]” the “KD (%) TNF-α” value [1, 9] was 40.61% and the “KD (%) TNF-α” value [1, 10] was 17.03%.
With “CUGAUUAAGUUGUCUAAACAA (siRNA; delivered as complex with delivery-enhancing peptide, further chemistry not given here) [LC16]” the “KD (%) TNF-α” value [1, 9] was 55.91% and the “KD (%) TNF-α” value [1, 10] was 40.06%.
Histone H2B gave a measured beta-galactosidase activity [6] of 37.97%.
infliximab [Ramicade] was tested, and the “Quantity of TNF-α protein in blood plasma by ELISA” value (“Quantity of TNF-α protein” for short) ([7]; age 7 weeks) was 102.24 pg/mL, the “Quantity of TNF-α protein” value ([7]; age 8 weeks) was 39.27 pg/mL and the “Quantity of TNF-α protein” value ([7]; age 9 weeks) was 25.80 pg/mL. For the same substance, the “RA score (paw and joint inflammation)” value ([3]; twice weekly from age 6 weeks, effect beginning at age 7 weeks) was “RA score stabilization”.
In the case of “GCGUGGAGCUGAGAGAUAA (chemistry not given here) [TNF-α-1]”, the “reduction in TNF-α protein level” value [8] was 75% and the “TNF-α mRNA knockdown” value ([1]; siRNA screen with Lipofectamine 2000, LPS-activated monocytes) was 50%.
With UAGGGUCGGAACCCAAGCUUA [LC20] the “Relative protein expression level of IFN-γ” value [5] was “Background”, the “Relative protein expression level of IL-12” value [5] was “Background” and the “Relative protein expression level of INF-α” value [5] was “Background”. For the same substance, the “interferon response (ELISA)” value [5] was “no interferon response”, the “TNF-α knockdown activity (FIG. 6-C)” value ([1]; absence of PN73, 0-2.5 nM) was “little knockdown activity” and the “KD (%) TNF-α” value [1, 9] was 42.68%. The “KD (%) TNF-α” value [1, 10] was 71.12%, the “KD (%) TNF-α” value [1, 11] was −3.80% and the “KD (%) TNF-α” value [1, 12] was 10.72%. For the same substance, the “KD (%) TNF-α” value [1, 13] was 26.53%, the “decrease in TNF-α gene expression relative to Qneg control (FIG. 6-B)” value ([1]; siRNA complexed with PN73 1:1, 0-2.5 nM) was about 30% and the “delay in RA progression relative to lower doses” value ([3]; 2 mg/kg LC20, PN73 1:5) was “greatest relative observed delay in RA progression”. The “Relative effect of siRNA, effectiveness relative to Ramicade” value ([3]; group TNF #1 (LC20, Ramicade, PBS)) was “LC20 is as effective as”, the “Relative effect of siRNA, paw score” value ([3]; group TNF #4) was “Overall low paw score” and the “Relative effect of siRNA, paw score” value ([3]; group TNF #6) was “Overall low paw score. YC12”. For the same substance, the “Relative effect of siRNA, effectiveness relative to Ramicade by week 8” value ([3]; group TNF #7) was “LC20 and TNF-α9 are more”, the “Relative effect of siRNA, effectiveness relative to Ramicade by week 11” value ([3]; group TNF #7) was “week 8; LC20 is equally” and the “RA progression by paw score at week 8 (FIG. 4)” value [3] was “delayed RA progression”.
“AAGCUCCAGUGGCUGAACCGC (siRNA; delivered as complex with delivery-enhancing peptide, further chemistry not given here) [LC9]” was tested, and the “KD (%) TNF-α” value [1, 9] was 40.32% and the “KD (%) TNF-α” value [1, 10] was 58.20%.
In the case of “AAUGGCGUGGAGCUGAGAGAU (siRNA; delivered as complex with delivery-enhancing peptide, further chemistry not given here) [LC2]”, the “KD (%) TNF-α” value [1, 9] was 19.06% and the “KD (%) TNF-α” value [1, 10] was 37.04%.
With AAVALLPAVLLALLAPRKKRRQRRRPPQC [PN27] the “Percent Uptake LacZ Cells” value [2] was 86% and the “Percent Uptake Primary MTF Cells” value [4] was 61%.
For C(YGRKKRRQRRRG)2 [PN204], the “Percent Uptake LacZ Cells” value [2] was 83%.
